What was measured:
[1] = Effect of food on oral absorption of GP1681
IP receptor (PTGIR) = target: T1, IP receptor (PTGIR) (Homo sapiens, UniProt P43119); test: PathHunter beta-arrestin cell-based prostanoid receptor assay, IP; conditions: Run 1, GP1681 starting concentration 4 uM; β-Arrestin; read-out: EC50
T1 construct: host or cells: PathHunter beta-arrestin cell line
Protocol: (§1) DiscoverX cell-based ligand binding assays were performed in the PathHunter beta-arrestin (EP1, EP2, EP3, EP4, FP, IP, and TP receptors) or cAMP Hunter™ (DP receptor) cell lines.
(§2) Receptor binding studies were performed in either the PathHunter® b-Arrestin (EP1, EP2, EP3, EP4, FP, IP, and TP receptors) or cAMP Hunter™ (DP receptor) cell lines. A 10 mM working stock of GP1681 was created in 1×PBS, pH 7.4. All assays were carried out in duplicate with 10 individual concentrations of GP1681. A three-fold dilution series of GP1681 was established for the initial or pilot experiment with a starting concentration of 4 uM (starting concentration was chosen based on previous Gemmus Pharma preclinical experimental results).
(§3) GP1681 was incubated with cells lines at either 37° C. or room temperature, for 90-180 minutes (temperatures and incubation times are all dependent on established optimized procedures for each receptor cell line) after which cell wells were processed and signal production detected. […] Vehicle only controls (PBS, pH 7.4) were also included for each receptor cell line. Receptor binding activity was analyzed using CBIS data analysis suite (ChemInnovation, CA). The percentage of activity was calculated using the following formula: % Activity=100%×(mean RLU of test sample−mean RLU of vehicle control)/(mean MAX control ligand−mean RLU of vehicle control). Dose curves were performed and EC50 values determined.

FP receptor (PTGFR) = target: T2, FP receptor (PTGFR) (Homo sapiens, UniProt P43088); test: PathHunter beta-arrestin cell-based prostanoid receptor assay, FP
T2 construct: host or cells: PathHunter beta-arrestin cell line
Protocol: as §1, §2
(§4) GP1681 was incubated with cells lines at either 37° C. or room temperature, for 90-180 minutes (temperatures and incubation times are all dependent on established optimized procedures for each receptor cell line) after which cell wells were processed and signal production detected. […] Receptor binding activity was analyzed using CBIS data analysis suite (ChemInnovation, CA). The percentage of activity was calculated using the following formula: % Activity=100%×(mean RLU of test sample−mean RLU of vehicle control)/(mean MAX control ligand−mean RLU of vehicle control). Dose curves were performed and EC50 values determined.

DP1 receptor (PTGDR) = target: T3, DP1 receptor (PTGDR) (Homo sapiens, UniProt Q13258); test: cAMP Hunter cell-based prostanoid receptor assay, DP receptor; conditions: HitHunter cAMP cell line
T3 construct: host or cells: cAMP Hunter (DP receptor) cell line
T3 sequence (Q13258 1-359): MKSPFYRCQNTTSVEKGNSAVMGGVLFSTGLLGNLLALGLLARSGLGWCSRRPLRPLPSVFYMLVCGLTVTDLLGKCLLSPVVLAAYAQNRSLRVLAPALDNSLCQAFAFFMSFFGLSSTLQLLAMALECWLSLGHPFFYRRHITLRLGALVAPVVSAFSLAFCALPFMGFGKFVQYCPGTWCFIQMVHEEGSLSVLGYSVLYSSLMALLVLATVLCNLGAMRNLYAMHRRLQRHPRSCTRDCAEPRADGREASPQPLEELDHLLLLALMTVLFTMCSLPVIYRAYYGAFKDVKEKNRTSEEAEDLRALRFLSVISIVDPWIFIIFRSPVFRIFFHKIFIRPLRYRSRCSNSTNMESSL
Protocol: as §1, §2, §3
(§5) The four assays were repeated with a higher starting concentration.
(§6) The second experimental run of the receptor binding assay was performed with these last four cell lines including GP1681 and their respective positive and negative (vehicle, PBS pH 7.4) controls. A 10 mM GP1681 working stock was again created in 1×PBS, pH 7.4. A three-fold serial dilution scheme was again used for GP1681 samples, starting this time at a concentration of 500 μM. The remainder of the second experimental run was performed in the same manner as run 1.

EP1 receptor (PTGER1) = target: T4, EP1 receptor (PTGER1) (Homo sapiens, UniProt P34995); test: PathHunter beta-arrestin cell-based prostanoid receptor assay, EP1; conditions: β-Arrestin
T4 construct: host or cells: PathHunter beta-arrestin cell line
T4 sequence (P34995 1-402): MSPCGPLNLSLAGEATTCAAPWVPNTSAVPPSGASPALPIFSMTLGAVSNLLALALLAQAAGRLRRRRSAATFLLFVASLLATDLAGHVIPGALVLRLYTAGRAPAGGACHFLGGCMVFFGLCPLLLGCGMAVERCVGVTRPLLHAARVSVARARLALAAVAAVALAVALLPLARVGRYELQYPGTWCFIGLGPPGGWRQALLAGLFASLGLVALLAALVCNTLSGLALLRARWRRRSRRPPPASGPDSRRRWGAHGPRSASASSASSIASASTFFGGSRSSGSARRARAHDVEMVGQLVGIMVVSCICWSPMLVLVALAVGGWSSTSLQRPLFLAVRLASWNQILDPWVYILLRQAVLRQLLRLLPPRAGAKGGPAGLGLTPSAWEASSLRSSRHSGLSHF
Protocol: as §1, §2, §3, §5, §6

EP3 receptor (PTGER3) = target: T5, EP3 receptor (PTGER3) (Homo sapiens, UniProt P43115); test: PathHunter beta-arrestin cell-based prostanoid receptor assay, EP3; conditions: β-Arrestin
T5 construct: host or cells: PathHunter beta-arrestin cell line
T5 sequence (P43115 1-390): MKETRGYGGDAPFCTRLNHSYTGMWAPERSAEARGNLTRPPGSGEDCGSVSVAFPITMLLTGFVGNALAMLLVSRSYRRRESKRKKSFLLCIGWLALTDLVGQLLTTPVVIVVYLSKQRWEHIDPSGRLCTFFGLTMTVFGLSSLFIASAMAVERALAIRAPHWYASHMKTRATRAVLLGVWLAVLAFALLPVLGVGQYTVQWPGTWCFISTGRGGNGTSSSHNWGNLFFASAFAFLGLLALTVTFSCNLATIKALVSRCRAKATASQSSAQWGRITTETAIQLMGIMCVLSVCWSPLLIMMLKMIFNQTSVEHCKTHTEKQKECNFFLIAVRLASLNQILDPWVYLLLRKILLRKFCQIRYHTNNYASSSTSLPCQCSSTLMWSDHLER
Protocol: as §1, §2
as §4, with “determined. […]” for “determined.”

EP2 receptor (PTGER2) = target: T6, EP2 receptor (PTGER2) (Homo sapiens, UniProt P43116); test: PathHunter beta-arrestin cell-based prostanoid receptor assay, EP2
T6 construct: host or cells: PathHunter beta-arrestin cell line
Protocol: as §1, §2, §4

[2] = Run 1, GP1681 starting concentration 4 uM, β-Arrestin
[3] = Run 1, GP1681 starting concentration 4 uM, curve for GP1681 not fully sigmoidal
[4] = Run 2, GP1681 starting concentration 500 μM

T6 sequence (P43116 whole entry): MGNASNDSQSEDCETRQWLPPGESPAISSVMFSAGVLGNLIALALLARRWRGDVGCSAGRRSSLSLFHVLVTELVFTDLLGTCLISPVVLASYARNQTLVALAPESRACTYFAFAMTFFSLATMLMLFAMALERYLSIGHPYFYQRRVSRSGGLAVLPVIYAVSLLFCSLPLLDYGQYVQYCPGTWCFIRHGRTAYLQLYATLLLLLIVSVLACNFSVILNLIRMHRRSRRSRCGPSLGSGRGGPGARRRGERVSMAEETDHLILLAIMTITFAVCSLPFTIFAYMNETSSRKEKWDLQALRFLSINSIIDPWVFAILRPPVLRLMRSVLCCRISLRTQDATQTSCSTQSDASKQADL
T2 sequence (P43088 whole entry): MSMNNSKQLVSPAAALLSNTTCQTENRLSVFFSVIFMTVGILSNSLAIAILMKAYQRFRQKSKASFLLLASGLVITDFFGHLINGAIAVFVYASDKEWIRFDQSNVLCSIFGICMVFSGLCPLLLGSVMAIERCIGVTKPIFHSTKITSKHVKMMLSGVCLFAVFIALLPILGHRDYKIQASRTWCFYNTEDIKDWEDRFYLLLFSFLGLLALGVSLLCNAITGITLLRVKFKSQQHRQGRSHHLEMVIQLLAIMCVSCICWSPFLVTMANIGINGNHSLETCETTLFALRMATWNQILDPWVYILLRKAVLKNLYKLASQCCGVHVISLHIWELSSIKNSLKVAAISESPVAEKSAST
T1 sequence (P43119 whole entry): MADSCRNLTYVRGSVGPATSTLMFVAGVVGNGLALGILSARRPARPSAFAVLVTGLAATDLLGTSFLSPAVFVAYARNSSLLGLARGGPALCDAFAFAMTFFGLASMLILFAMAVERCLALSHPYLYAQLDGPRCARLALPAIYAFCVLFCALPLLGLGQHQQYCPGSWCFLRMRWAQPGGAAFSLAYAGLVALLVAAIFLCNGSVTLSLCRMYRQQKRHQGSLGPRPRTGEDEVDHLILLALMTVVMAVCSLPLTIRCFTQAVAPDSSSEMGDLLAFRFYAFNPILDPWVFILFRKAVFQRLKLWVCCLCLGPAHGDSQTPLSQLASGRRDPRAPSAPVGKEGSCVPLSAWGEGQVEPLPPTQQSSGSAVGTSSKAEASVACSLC

CC#CCC(C)C(O)C=CC1C(O)CC2Oc3c(CCCC(=O)O)cccc3C21 (single isomer, unassigned) [GP1681, esuberaprost]
effect of food on oral absorption [1]: positive effect | EC50 (IP receptor (PTGIR)): 110 nM | binding to FP receptor, in words (FP receptor (PTGFR)): does not bind | EC50 (FP receptor (PTGFR); [2]): > 4000 nM | EC50 (DP1 receptor (PTGDR); [3]): 1350 nM | EC50 (DP1 receptor (PTGDR); [4]): 1330 nM | EC50 (EP1 receptor (PTGER1); [3]): 1080 nM | EC50 (EP1 receptor (PTGER1); [4]): 7810 nM | EC50 (EP3 receptor (PTGER3); [3]): 1830 nM | EC50 (EP3 receptor (PTGER3); [4]): 5390 nM | binding to EP2 receptor, in words (EP2 receptor (PTGER2)): does not bind | EC50 (EP2 receptor (PTGER2); [2]): > 4000 nM
